Data on ten compounds can be found in patent US5502036A, “Antiherpes pentapeptide derivatives having a substituted aspartic acid side chain” (priority 1989, dated 1996).

pIC50: −log10 of the molar value. Where a SMILES comes first, the peptide text is derived from it. [ ]: non-standard residue; d: D form. The star is where a group is joined. Gly(1-COOH-cBu) = N[C@H](C(=O)O)C1(C(=O)O)CCC1; Hydrocinnamoyl = O=C(CCc1ccccc1)*; Pentanoyl(4-Me) = CC(C)CCC(=O)*; O(2S-octyl) = CCCCCC[C@H](C)O*; NHPhenethyl = c1ccc(CCN*)cc1; Tle = CC(C)(C)[C@H](N)C(=O)O; NMeV = CN[C@H](C(=O)O)C(C)C; Pyrrolidide = C1CCN(*)C1; NHIsopentyl = CC(C)CCN*; Boc = CC(C)(C)OC(=O)*; X6 = CC(C)C[C@H](C)N*; X2 = CCCCCCCCCCCCO*; X4 = CCCCCCCCN(C)*

As usually defined, the pIC50 is the IC50 on a negative log10 scale, so that one unit is a factor of ten.

The target of the first assay is T1, HSV-1 ribonucleotide reductase (partially purified) (Human herpesvirus 1, UniProt P08543).
T1 construct: obtained from quiescent BHK-21/C13 cells infected with strain F HSV-1 virus; endogenous in cells; host or cells: quiescent BHK-21/C13 cells infected with HSV-1 strain F; enzyme partially purified (Cohen et al., J. Gen. Virol. 66, 733 (1985))
T1 sequence (P08543 whole entry): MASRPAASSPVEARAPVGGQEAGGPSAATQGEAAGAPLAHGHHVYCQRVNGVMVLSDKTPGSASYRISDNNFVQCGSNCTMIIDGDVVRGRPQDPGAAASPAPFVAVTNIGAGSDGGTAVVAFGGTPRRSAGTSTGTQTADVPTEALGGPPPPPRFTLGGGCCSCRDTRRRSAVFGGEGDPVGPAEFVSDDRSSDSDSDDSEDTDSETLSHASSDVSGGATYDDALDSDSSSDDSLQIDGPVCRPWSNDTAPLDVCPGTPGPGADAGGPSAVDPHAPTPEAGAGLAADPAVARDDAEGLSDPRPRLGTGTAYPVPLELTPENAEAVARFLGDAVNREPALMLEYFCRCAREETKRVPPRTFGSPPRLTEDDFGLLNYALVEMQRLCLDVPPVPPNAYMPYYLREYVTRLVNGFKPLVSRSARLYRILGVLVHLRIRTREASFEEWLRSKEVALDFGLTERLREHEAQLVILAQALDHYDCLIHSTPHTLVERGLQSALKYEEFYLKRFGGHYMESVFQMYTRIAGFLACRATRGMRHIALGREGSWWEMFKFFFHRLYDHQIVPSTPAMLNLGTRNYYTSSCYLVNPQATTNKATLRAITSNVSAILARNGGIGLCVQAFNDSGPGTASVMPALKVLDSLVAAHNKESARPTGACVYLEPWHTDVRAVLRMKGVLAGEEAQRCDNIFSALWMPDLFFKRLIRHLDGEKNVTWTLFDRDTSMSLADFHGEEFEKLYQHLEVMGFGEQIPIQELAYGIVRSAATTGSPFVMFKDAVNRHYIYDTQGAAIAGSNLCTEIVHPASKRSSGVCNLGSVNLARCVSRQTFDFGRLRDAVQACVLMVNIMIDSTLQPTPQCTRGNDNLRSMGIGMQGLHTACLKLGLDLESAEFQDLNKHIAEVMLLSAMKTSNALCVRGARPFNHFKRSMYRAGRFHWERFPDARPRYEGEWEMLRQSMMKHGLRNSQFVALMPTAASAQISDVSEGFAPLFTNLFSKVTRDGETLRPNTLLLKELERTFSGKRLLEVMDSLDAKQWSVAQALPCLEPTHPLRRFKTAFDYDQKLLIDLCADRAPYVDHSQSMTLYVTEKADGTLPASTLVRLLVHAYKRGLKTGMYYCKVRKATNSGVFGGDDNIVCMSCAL
Description: biochemical. It is filed as biochemical.
Conditions: not given
The text has this:
b) Assay and Results for Exemplified Peptides
The compound `CCCCCC[C@H](C)OC(=O)C[C@H](NC(=O)[C@@H](NC(=O)[C@H](C(C)C)N(C)C(=O)CCc1ccccc1)[C@@H](C)CC)C(=O)N[C@@H](CC(=O)O)C(=O)N[C@@H](CC(C)C)C(N)=O` [Entry 31, PhCH2 CH2 CO--N--Me--Val--Ile--Asp 1(S)-methylheptyloxy!-Asp--Leu--NH2] (Hydrocinnamoyl-[NMeV]ID(O(2S-octyl))DL-NH2) gave a pIC50 of 5.72.

The compound `CC(C)C[C@H](NC(=O)[C@@H](NC(=O)[C@H](CC(=O)N1CCCC1)NC(=O)[C@@H](NC(=O)[C@H](C(C)C)N(C)C(=O)CCc1ccccc1)C(C)(C)C)C1(C(=O)O)CCC1)C(=O)O` [Entry 33, PhCH2 CH2 CO--N--Me--Val--Tbg--Asp(pyrrolidino)-Asp(cyBu)-Leu--OH] (Hydrocinnamoyl-[NMeV][Tle]D(Pyrrolidide)[Gly(1-COOH-cBu)]L-OH) gave a negative-log IC50 (pIC50) of 7.22.

As for `CC[C@H](C)[C@H](NC(=O)[C@H](C(C)C)N(C)C(=O)CCc1ccccc1)C(=O)N[C@@H](CC(=O)N1CCCC1)C(=O)N[C@@H](CC(=O)O)C(=S)N[C@@H](CC(C)C)C(=O)O` [Entry 40, PhCH2 CH2 CO--N--Me--Val--Ile--Asp(pyrrolidino)-.PSI. CSNH!Asp--Leu--OH], the pIC50 is 6.80.

For the compound `CC[C@H](C)[C@H](NC(=O)[C@H](C(C)C)N(C)C(=O)CCc1ccccc1)C(=O)N[C@@H](CC(=O)N1CCCC1)C(=O)N[C@@H](CC(=O)O)C(=O)NCCC(C)C` [Entry 38, PhCH2 CH2 CO--N--Me--Val--Ile--Asp(pyrrolidino)-Asp--NHCH2 CH2 CH(CH3)2] (Hydrocinnamoyl-[NMeV]ID(Pyrrolidide)D-NHIsopentyl), the pIC50 was 5.89.

`CCCCCC[C@H](C)OC(=O)C[C@H](NC(=O)[C@@H](NC(=O)[C@H](C(C)C)N(C)C(=O)CCc1ccccc1)[C@@H](C)CC)C(=O)N[C@@H](CC(=O)O)C(=O)N[C@@H](CC(C)C)C(=O)OC` [Entry 37, PhCH2 CH2 CO--N--Me--Val--Ile--Asp 1(S)-methylheptyloxy!-Asp--Leu--OCH3] (Hydrocinnamoyl-[NMeV]ID(O(2S-octyl))DL-OMe): the pIC50 is 5.70.

Turning to `CCCCCC[C@H](C)OC(=O)C[C@H](NC(=O)[C@@H](NC(=O)[C@H](C(C)C)N(C)C(=O)CCC(C)C)[C@@H](C)CC)C(=O)N[C@@H](CC(=O)O)C(=O)N[C@@H](CC(C)C)C(=O)O` [Entry 30, 4-Methylpentanoyl-N--Me--Val--Ile--Asp 1(S)-methylheptyloxy!-Asp--Leu--OH] ({Pentanoyl(4-Me)}-[NMeV]ID(O(2S-octyl))DL-OH), the pIC50 is 5.77.

On to `CCCCCCCCN(C)C(=O)C[C@H](NC(=O)[C@@H](NC(=O)[C@H](C(C)C)N(C)C(=O)CCc1ccccc1)[C@@H](C)CC)C(=O)N[C@@H](CC(=O)O)C(=O)N[C@@H](CC(C)C)C(=O)O` [Entry 32, PhCH2 CH2 CO--N--Me--Val--Ile--Asp NMe(octyl)!-Asp--Leu--OH] (Hydrocinnamoyl-[NMeV]ID(X4)DL-OH), for which the pIC50 was 6.59.

As for `CC[C@H](C)[C@H](NC(=O)[C@H](C(C)C)N(C)C(=O)CCc1ccccc1)C(=O)N[C@@H](CC(=O)N1CCCC1)C(=O)N[C@@H](CC(=O)O)C(=O)N[C@@H](C)CC(C)C` [Entry 41, PhCH2 CH2 CO--N--Me--Val--Ile--Asp(pyrrolidino)-Asp--NHCH(CH3)CH2 CH(CH3)2] (Hydrocinnamoyl-[NMeV]ID(Pyrrolidide)D-X6), the pIC50 was 5.59.

In the case of `CCCCCCCCCCCCOC(=O)C[C@H](NC(=O)[C@@H](NC(=O)[C@H](C(C)C)N(C)C(=O)CCc1ccccc1)[C@@H](C)CC)C(=O)N[C@@H](CC(=O)O)C(=O)N[C@@H](CC(C)C)C(=O)O` [Entry 29, PhCH2 CH2 CO--N--Me--Val--Ile--Asp(dodecyloxy)-Asp--Leu--OH] (Hydrocinnamoyl-[NMeV]ID(X2)DL-OH), the pIC50 was 5.38.

The same assay, now with this note: Table 4; concentration producing 50% of the maximal inhibition of enzyme activity; mean of four assays; read-out: IC50.
As to `CC[C@H](C)[C@H](NC(=O)[C@H](C(C)C)N(C)C(=O)OC(C)(C)C)C(=O)N[C@@H](CC(=O)NCCc1ccccc1)C(=O)N[C@@H](CC(=O)O)C(=O)N[C@@H](CC(C)C)C(=O)O` [Entry 24, Boc--N--Me--Val--Ile--Asp(NHCH2 CH2 Ph)--Asp--Leu--OH] (Boc-[NMeV]ID(NHPhenethyl)DL-OH), the pIC50 is 5.80.
